Data on three compounds can be found in ChEMBL document CHEMBL1148110, “New lanostanoids from the fungus Ganoderma concinna” (J Nat Prod, 2002).

Calls of active or inactive are those of the source. The rule behind the calls is not given here.

Experiment [1] concerns HL-60. In words: Induction of apoptosis in human HL60 cells assessed as intranucleosomal hydrolysis of chromatin at 30 uM after 24 hrs by agarose gel electrophoresis. Type of experiment: functional, cell-based.
The test system of experiment [2] is HL-60. In words: Induction of apoptosis in human HL60 cells assessed as chromatin condensation and fragmentation at 30 uM after 24 hrs by quantitative fluorescent microscopy.
For experiment [3], the system named is HL-60. Put plainly: Induction of apoptosis in human HL60 cells assessed as morphological changes at 30 uM after 24 hrs by Hoechst 33258 staining. Format: functional, cell-based.
Experiment [4] relates to HL-60. In words: Cytotoxicity against human HL60 cells after 24 hrs by MTT assay. Format: functional, cell-based. To be noted: HL-60, 24 h.

On to `C/C(C=O)=C/CC[C@@H](C)[C@H]1CC[C@@]2(C)C3=CC[C@H]4C(C)(C)[C@@H](O)CC[C@]4(C)C3=CC[C@]12C`, for which, in the experiment on HL-60 [1], the outcome was Active. Further, the Activity in the experiment with HL-60 [2] stood at 15%.

Regarding `CC(=O)[C@H]1CC(=O)[C@@]2(C)[C@]34O[C@@]3(C(=O)C[C@]12C)[C@@]1(C)CCC(=O)C(C)(C)[C@@H]1CC4=O`, the outcome in the experiment with HL-60 [1] was Active. Further, the Activity in the experiment with HL-60 [2] turned out to be 12%.

On to `C/C(=C/CC[C@@H](C)[C@H]1C[C@H](O)[C@@]2(C)C3=CC[C@H]4C(C)(C)C(=O)CC[C@]4(C)C3=CC[C@]12C)CO`, for which the outcome with HL-60 [3] and with HL-60 [1] was Active. Further, the IC50 in the experiment with HL-60 [4] came out at 15.7 µM. In the experiment with HL-60 [2], the Activity came out at 62%.

As usually defined, the IC50 is the midpoint of a concentration-inhibition curve. High values mean lower potency, low ones higher potency.
